Measurements published in patent publication US9237747B2, “Herbicidal compositions comprising 4-amino-3-chloro-5-fluoro-6-(4-chloro-2-fluoro-3-methoxyphenyl) pyridine-2-carboxylic acid or a derivative thereof and insecticides” (priority 2013, dated 2016).
Where “and” joins values, the source holds several entries; their conditions need not be identical. Identical values can stand only once. Like-named read-outs stand apart in the source and are kept apart here.

What was measured:
BRAPP = assay: Postemergence foliar-applied weed control, direct-seeded rice (greenhouse); type: in vivo, Brachiaria platyphylla
Description: (§1) Seeds or nutlets of the desired test plant species were planted in a soil matrix prepared by mixing a loam or sandy loam soil (e.g., 28.6 percent silt, 18.8 percent clay, and 52.6 percent sand, with a pH of about 5.8 and an organic matter content of about 1.8 percent) and calcareous grit in an 80 to 20 ratio. The soil matrix was contained in plastic pots with a volume of 1 quart and a surface area of 83.6 square centimeters (cm^2). When required to ensure good germination and healthy plants, a fungicide treatment and/or other chemical or physical treatment was applied. The plants were grown for 8-22 days in a greenhouse with an approximate 14 hour (h) photoperiod which was maintained at about 29° C. during the day and 26° C. during the night. Nutrients (Peters Excel® 15-5-15 5-Ca 2-Mg and iron chelate) were applied in the irrigation solution as needed and water was added on a regular basis. Supplemental lighting was provided with overhead metal halide 1000-Watt lamps as necessary. The plants were employed for testing when they reached the first through fourth true leaf stage.
(§2) Treatments consisted of the acid or esters of 4-amino-3-chloro-6-(4-chloro-2-fluoro-3-methoxyphenyl)-5-fluoropyridine-2-carboxylic acid (Compound A), each formulated as an SC (suspension concentrate), and various insecticidal components alone and in combination. Forms of compound A were applied on an acid equivalent basis.
(§3) Treatment requirements were calculated based upon the rates being tested, the concentration of active ingredient or acid equivalent in the formulation, and a 12 milliliter (mL) application volume at a rate of 187 liters per hectare (L/ha).
(§4) For treatments comprised of formulated compounds, measured amounts of compounds were placed individually in 25 mL glass vials and diluted in a volume of 1.25% volume per volume (v/v) Agri-Dex® crop oil concentrate to obtain 12× stock solutions. […] Application solutions were prepared by adding an appropriate amount of each stock solution (e.g., 1 mL) and diluted to the appropriate final concentrations with the addition of […] of an aqueous mixture of 1.25% (v/v) crop oil concentrate so that the final spray solutions contained 1.25+/−0.05% (v/v) crop oil concentrate.
(§5) As required, additional water and/or 97:3 v/v acetone/DMSO was added to individual application solutions so that the final acetone and DMSO concentrations of the application solutions being compared were 8.1% and 0.25%, respectively.
(§6) All stock solutions and applications solutions were visually inspected for compound compatibility prior to application. Spray solutions were applied to the plant material with an overhead Mandel track sprayer equipped with 8002E nozzles calibrated to deliver 187 L/ha over an application area of 0.503 square meters (m^2) at a spray height of 18 to 20 inches (46 to 50 cm) above average plant canopy height. Control plants were sprayed in the same manner with the solvent blank.
(§7) The treated plants and control plants were placed in a greenhouse as described above and watered by sub-irrigation to prevent wash-off of the test compounds. After approximately 3 weeks, the condition of the test plants as compared to that of the untreated plants was determined visually and scored on a scale of 0 to 100 percent where 0 corresponds to no injury or growth inhibition and 100 corresponds to complete kill.
(§8) Colby's equation was used to determine the herbicidal effects expected from the mixtures (Colby, S. R. Calculation of the synergistic and antagonistic response of herbicide combinations. Weeds 1967, 15, 20-22.).
(§9) The following equation was used to calculate the expected activity of mixtures containing two active ingredients, A and B: Expected=A+B−(A×B/100)

ECHCG = type: in vivo, Echinochloa crus-galli
Procedure, shortened: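 Foliar spray, 187 L/ha, track sprayer; 1.25% v/v COC, 8.1% acetone, 0.25% DMSO in spray. Plants at 1st–4th true leaf, greenhouse 29/26 °C. Visual injury 0–100% (0 = none, 100 = complete kill) at ~3 wk after treatment; expected mixture response by Colby.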

CYPES = type: in vivo, Cyperus esculentus
Description: as §1, with “When required to ensure good germination and healthy plants, a fungicide treatment and/or other chemical or physical treatment was applied.” left out
as §2, §4, §5, §6, §7, §8, §9

SCPJU = assay: Postemergence foliar-applied weed control, direct-seeded rice (greenhouse); type: in vivo, Schoenoplectus juncoides; conditions: 4.38 g ae/ha alone
Description: as §1, with “Supplemental lighting was provided with overhead metal halide 1000-Watt lamps as necessary. The plants were employed for testing when they reached the first through fourth true leaf stage.” left out
as §3
For treatments comprised of formulated compounds, measured amounts of compounds were placed individually in 25 mL glass vials and diluted in a volume of 1.25% volume per volume (v/v) Agri-Dex® crop oil concentrate to obtain 12× stock solutions. […]

COc1c(Cl)ccc(-c2nc(C(=O)O)c(Cl)c(N)c2F)c1F [Compound A Acid, 4-amino-3-chloro-6-(4-chloro-2-fluoro-3-methoxyphenyl)-5-fluoropyridine-2-carboxylic acid]
Visual Weed Control (%) - 20 DAA BRAPP Obs (BRAPP; 4.38 g ae/ha alone): 70%
Visual Weed Control (%) - 20 DAA ECHCG Obs (ECHCG; 4.38 g ae/ha alone): 60%
Visual Weed Control (%) - 20 DAA ECHCG Obs (ECHCG; 5.3 g ae/ha alone): 65%
Visual Weed Control (%) - 20 DAA ECHCG Obs (ECHCG; 8.75 g ae/ha alone): 80%
Visual Weed Control (%) - 20 DAA ECHCG Obs (ECHCG; 10.6 g ae/ha alone): 90%
Visual Weed Control (%) - 20 DAA ECHCG Obs (ECHCG; 17.5 g ae/ha alone): 95%
Visual Weed Control (%) - 21 DAA ECHCG Obs (ECHCG; 5.3 g ae/ha alone): 65%
Visual Weed Control (%) - 21 DAA ECHCG Obs (ECHCG; 10.6 g ae/ha alone): 85%
Visual Weed Control (%) - 21 DAA ECHCG Obs (ECHCG; 21.2 g ae/ha alone): 95%
Visual Weed Control (%) - 20 DAA ECHCG Obs (ECHCG; 21.2 g ae/ha alone): 95%

COc1c(Cl)ccc(-c2nc(C(=O)OCc3ccccc3)c(Cl)c(N)c2F)c1F [Compound A Benzyl Ester]
Visual Weed Control (%) - 20 DAA BRAPP Obs (BRAPP; 4.38 g ae/ha alone): 75%
Visual Weed Control (%) - 20 DAA BRAPP Obs (BRAPP; 8 g ae/ha alone): 55%
Visual Weed Control (%) - 21 DAA BRAPP Obs (BRAPP; 8 g ae/ha alone): 70%
Visual Weed Control (%) - 20 DAA BRAPP Obs (BRAPP; 8.75 g ae/ha alone): 75%
Visual Weed Control (%) - 20 DAA BRAPP Obs (BRAPP; 17.5 g ae/ha alone): 95%
Visual Weed Control (%) - 20 DAA CYPES Obs (CYPES; 8 g ae/ha alone): 25%
Visual Weed Control (%) - 22 DAA CYPES Obs (CYPES; 8 g ae/ha alone): 70%
Visual Weed Control (%) - 20 DAA CYPES Obs (CYPES; 16 g ae/ha alone): 40%
Visual Weed Control (%) - 22 DAA CYPES Obs (CYPES; 16 g ae/ha alone): 95%
Visual Weed Control (%) - 22 DAA CYPES Obs (CYPES; 22 DAA, 8 g ae/ha alone): 70%
Visual Weed Control (%) - 20 DAA CYPES Obs (CYPES; 32 g ae/ha alone): 73%
Visual Weed Control (%) - 20 DAA ECHCG Obs (ECHCG; 4.38 g ae/ha alone): 60% and 70%
Visual Weed Control (%) - 19 DAA ECHCG Obs (ECHCG; 8 g ae/ha alone): 85%
Visual Weed Control (%) - 20 DAA ECHCG Obs (ECHCG; 8 g ae/ha alone): 70%
Visual Weed Control (%) - 22 DAA ECHCG Obs (ECHCG; 8 g ae/ha alone): 50%
Visual Weed Control (%) - 20 DAA ECHCG Obs (ECHCG; 8.75 g ae/ha alone): 85% and 80%
Visual Weed Control (%) - 19 DAA ECHCG Obs (ECHCG; 16 g ae/ha alone): 85%
Visual Weed Control (%) - 22 DAA ECHCG Obs (ECHCG; 16 g ae/ha alone): 60%
Visual Weed Control (%) - 20 DAA ECHCG Obs (ECHCG; 17.5 g ae/ha alone): 90% and 95%
Visual Weed Control (%) - 21 DAA ECHCG Obs (ECHCG; 4.38 g ae/ha alone): 70%
Visual Weed Control (%) - 21 DAA ECHCG Obs (ECHCG; 8.75 g ae/ha alone): 85%
Visual Weed Control (%) - 21 DAA ECHCG Obs (ECHCG; 17.5 g ae/ha alone): 90%
Visual Weed Control (%) - 22 DAA ECHCG Obs (ECHCG; 22 DAA, 8 g ae/ha alone): 45% and 50%
Visual Weed Control (%) - 22 DAA ECHCG Obs (ECHCG; 22 DAA, 16 g ae/ha alone): 60%
Visual Weed Control (%) - 22 DAA ECHCG Obs (ECHCG; 22 DAA, 32 g ae/ha alone): 90% and 95%
Visual Weed Control (%) - 19 DAA ECHCG Obs (ECHCG; 32 g ae/ha alone): 95%
Visual Weed Control (%) - 22 DAA SCPJU Obs (SCPJU): 70%
